Converted amounts (≈) assume the structure as drawn. Read-outs that look alike come from different tables or passages of the source.
What was measured:
Type in all cases: cell-based
[1] = system: Staphylococcus aureus ATCC 6538P; test: In vitro antibacterial activity, agar dilution MIC; conditions: ATCC6538P
Protocol: (§1) The antimicrobial spectra of a number of compounds of the invention were tested by the following method:
(§2) Twelve petri dishes containing successive aqueous dilutions of the test compound mixed with 10 ml of sterilized Brain Heart Infusion agar (Difco 0418-01-5) are prepared. Each plate is inoculated with 1:100 (or 1:10 for slow growing strains, primarily Micrococcus and Streptococcus) dilutions of up to 32 different microorganisms, using a Steers replicator block The inoculated plates are incubated at 35°-37° C. for 20-24 hours. In addition, a control plate, using BHI agar containing no test compound, is prepared and incubated at the beginning and end of each test.
(§3) An additional plate containing a compound having known susceptibility patterns for the organisms being tested and belonging to the same antibiotic class as the test compound is also prepared and incubated as a further control, as well as to provide test-to-test comparability. Erythromycin A was used for this purpose.
(§4) After incubation, each disk is read. The MIC is defined as the lowest concentration of drug yielding no growth, a slight haze, or sparsely isolated colonies on the inoculum spot as compared to the growth control.

Staphylococcus aureus 45 = test: In vitro antibacterial activity, agar dilution MIC; conditions: S. aureus 45, Brain Heart Infusion agar, 20-24 hours, read-out: MIC
Protocol: as §1, §2, §3, §4

[2] = system: Micrococcus luteus ATCC 9341; test: In vitro antibacterial activity, agar dilution MIC
Protocol: as §1, §2, §3, §4

[3] = system: Streptococcus bovis A5169; test: In vitro antibacterial activity, agar dilution MIC; conditions: S. bovis A5169; Brain Heart Infusion agar, 20-24 hours; read-out: MIC
Protocol: as §1, §2, §3, §4

[4] = system: Staphylococcus aureus CMX 553; test: In vitro antibacterial activity, agar dilution MIC
Protocol: as §1, §2, §3, §4

Escherichia coli DC-2 = test: In vitro antibacterial activity, agar dilution MIC
Protocol: as §1, §2, §3, §4

[5] = system: Micrococcus luteus ATCC 4698; test: In vitro antibacterial activity, agar dilution MIC; conditions: ATCC4698, M. luteus ATCC 4698, Brain Heart Infusion agar, 20-24 hours, read-out: MIC
Protocol: as §1, §2, §3, §4

Escherichia coli H560 = test: In vitro antibacterial activity, agar dilution MIC
Protocol: as §1, §2, §3, §4

Escherichia coli SS = test: In vitro antibacterial activity, agar dilution MIC; conditions: E. coli SS, Brain Heart Infusion agar, 20-24 hours, read-out: MIC
Protocol: as §1, §2, §3, §4

[6] = system: Streptococcus pyogenes EES61; test: In vitro antibacterial activity, agar dilution MIC; conditions: S. pyogenes EES61, Brain Heart Infusion agar, 20-24 hours, read-out: MIC
Protocol: as §1, §2, §3, §4

[7] = system: Staphylococcus aureus NCTC 10649; test: In vitro antibacterial activity, agar dilution MIC
Protocol: as §1, §2, §3, §4

[8] = system: Staphylococcus aureus 642A; test: In vitro antibacterial activity, agar dilution MIC
Protocol: as §1, §2, §3, §4

[9] = system: Enterococcus faecium ATCC 8043; test: In vitro antibacterial activity, agar dilution MIC; conditions: ATCC8043, E. faecium ATCC 8043, Brain Heart Infusion agar, 20-24 hours, read-out: MIC
Protocol: as §1, §2, §3, §4

[10] = system: Staphylococcus aureus A5177; test: In vitro antibacterial activity, agar dilution MIC; conditions: S. aureus A5177, Brain Heart Infusion agar, 20-24 hours, read-out: MIC
Protocol: as §1, §2, §3, §4

Escherichia coli Juhl = test: In vitro antibacterial activity, agar dilution MIC; conditions: E. coli Juhl, Brain Heart Infusion agar, 20-24 hours, read-out: MIC
Protocol: as §1, §2, §3, §4

[11] = system: Streptococcus pyogenes 2548 INDUC; test: In vitro antibacterial activity, agar dilution MIC; conditions: S. pyogenes 2548 INDUC, Brain Heart Infusion agar, 20-24 hours, read-out: MIC
Protocol: as §1, §2, §3, §4

[12] = system: Staphylococcus epidermidis 3519; test: In vitro antibacterial activity, agar dilution MIC
Protocol: as §1, §2, §3, §4

[13] = system: Streptococcus agalactiae CMX 508; test: In vitro antibacterial activity, agar dilution MIC
Protocol: as §1, §2, §3, §4

[14] = system: Streptococcus pyogenes 930 CONST; test: In vitro antibacterial activity, agar dilution MIC
Protocol: as §1, §2, §3, §4

[15] = system: Staphylococcus aureus 45 RAR 2; test: microbe, parasite or virus in culture; conditions: 45RAR2
Protocol: as §1, §2, §3, §4

[16] = system: Staphylococcus aureus CMX 686B; test: In vitro antibacterial activity, agar dilution MIC; conditions: CMX686B
Protocol: as §1, §2, §3, §4

[17] = system: Staphylococcus aureus CMX 503A; test: In vitro antibacterial activity, agar dilution MIC; conditions: CMX503A
Protocol: as §1, §2, §3, §4

[18] = S. aureus ATCC 6538P, Brain Heart Infusion agar, 35-37° C., 20-24 hours, read-out: MIC
[19] = CMX553, S. aureus CMX 553, Brain Heart Infusion agar, 20-24 hours, read-out: MIC
[20] = DC2, E. coli DC-2, Brain Heart Infusion agar, 20-24 hours, read-out: MIC
[21] = E. coli H560, Brain Heart Infusion agar, 20-24 hours, read-out: MIC
[22] = S. epidermidis 3519, Brain Heart Infusion agar, 20-24 hours, read-out: MIC
[23] = S. pyogenes 930 CONST, Brain Heart Infusion agar, 20-24 hours, read-out: MIC
[24] = ATCC9341, M. luteus ATCC 9341, Brain Heart Infusion agar, 20-24 hours, read-out: MIC
[25] = CMX508, S. agalactiae CMX 508, Brain Heart Infusion agar, 20-24 hours, read-out: MIC

| SMILES | MIC [1, 18] [mg/L] | MIC (Staphylococcus aureus 45) [mg/L] | MIC [3] [mg/L] | MIC [4, 19] [mg/L] | MIC (Escherichia coli DC-2; [20]) [mg/L] | MIC [5] [mg/L] | MIC (Escherichia coli H560; [21]) [mg/L] | MIC (Escherichia coli SS) [mg/L] | MIC [6] [mg/L] | MIC [9] [mg/L] | MIC [10] [mg/L] | MIC (Escherichia coli Juhl) [mg/L] | MIC [11] [mg/L] | MIC [12, 22] [mg/L] | MIC ([13]; CMX508, read-out: MIC) [mg/L] | MIC ([14]; 930CONST) [mg/L] | MIC [15] [mg/L] | MIC [14, 23] [mg/L] | MIC [2, 24] [mg/L] | MIC [17] [mg/L] | further results |
| --- | --- | --- | --- | --- | --- | --- | --- | --- | --- | --- | --- | --- | --- | --- | --- | --- | --- | --- | --- | --- | --- |
| CC[C@H]1OC(=O)[C@H](C)[C@@H](O[C@H]2C[C@@](C)(OC)[C@@H](O)[C@H](C)O2)[C@H](C)[C@@H](O[C@@H]2O[C@H](C)C[C@H](N(C)C)[C@H]2O)[C@](C)(O)C[C@@H](C)[C@@H](N2CCN(C(=O)c3ccccc3)CC2)[C@H](C)[C@@H](O)[C@]1(C)O [Example 17] | 1.56 (≈ 1.72 µM) | 0.78 (≈ 0.859 µM) | 0.39 (≈ 0.429 µM) | 1.56 (≈ 1.72 µM) | > 100 | 0.78 (≈ 0.859 µM) | > 100 | 3.1 (≈ 3.41 µM) | 0.39 (≈ 0.429 µM) | 0.39 (≈ 0.429 µM) | 12.5 (≈ 13.8 µM) | > 100 | 25 (≈ 27.5 µM) | 1.56 (≈ 1.72 µM) | 0.2 (≈ 0.22 µM) | > 100 | 3.1 (≈ 3.41 µM) |  |  |  | MIC ([2]; ATCC9341, read-out: MIC): 0.2 mg/L (≈ 0.22 µM); MIC ([7]; NCTC10649, S. aureus NCTC 10649, Brain Heart Infusion agar, 20-24 hours, read-out: MIC): 1.56 mg/L (≈ 1.72 µM); MIC ([8]; S. aureus 642A, Brain Heart Infusion agar, 20-24 hours, read-out: MIC): 1.56 mg/L (≈ 1.72 µM) |
| CC[C@H]1OC(=O)[C@H](C)[C@@H](O[C@H]2C[C@@](C)(OC)[C@@H](O)[C@H](C)O2)[C@H](C)[C@@H](O[C@@H]2O[C@H](C)C[C@H](N(C)C)[C@H]2O)[C@](C)(O)C[C@@H](C)[C@@H](N2CCN(C(=O)OCc3ccccc3)CC2)[C@H](C)[C@@H](O)[C@]1(C)O [Example 18] | 0.78 (≈ 0.831 µM) | 0.78 (≈ 0.831 µM) | 0.05 (≈ 0.0533 µM) | 0.78 (≈ 0.831 µM) | > 100 | 0.78 (≈ 0.831 µM) |  | 3.1 (≈ 3.3 µM) | 0.1 (≈ 0.107 µM) | 0.39 (≈ 0.416 µM) | 12.5 (≈ 13.3 µM) | > 100 | 12.5 (≈ 13.3 µM) | 0.78 (≈ 0.831 µM) | 0.2 (≈ 0.213 µM) |  | 1.56 (≈ 1.66 µM) | 50 (≈ 53.3 µM) |  |  | MIC ([16]; S. aureus CMX 686B, Brain Heart Infusion agar, 20-24 hours, read-out: MIC): 0.78 mg/L (≈ 0.831 µM); MIC ([2]; ATCC9341): 0.1 mg/L (≈ 0.107 µM); MIC (Escherichia coli H560; H560): 50 mg/L (≈ 53.3 µM); MIC ([17]; S. aureus CMX 503A, Brain Heart Infusion agar, 20-24 hours, read-out: MIC): 0.78 mg/L (≈ 0.831 µM) |
| CC[C@H]1OC(=O)[C@H](C)[C@@H](O[C@H]2C[C@@](C)(OC)[C@@H](O)[C@H](C)O2)[C@H](C)[C@@H](O[C@@H]2O[C@H](C)C[C@H](N(C)C)[C@H]2O)[C@](C)(O)C[C@@H](C)[C@@H](N2CCCC2)[C@H](C)[C@@H](O)[C@]1(C)O [Example 3] | 1.56 (≈ 1.98 µM) | 0.78 (≈ 0.989 µM) | 0.1 (≈ 0.127 µM) | 1.56 (≈ 1.98 µM) | 100 (≈ 127 µM) | 0.78 (≈ 0.989 µM) | 50 (≈ 63.4 µM) | 0.39 (≈ 0.494 µM) | 0.1 (≈ 0.127 µM) | 0.39 (≈ 0.494 µM) | 25 (≈ 31.7 µM) | > 100 | 50 (≈ 63.4 µM) | 1.56 (≈ 1.98 µM) |  |  | 1.56 (≈ 1.98 µM) | > 100 | 0.39 (≈ 0.494 µM) | 1.56 (≈ 1.98 µM) | MIC [16]: 1.56 mg/L (≈ 1.98 µM); MIC [13, 25]: 0.2 mg/L (≈ 0.253 µM) |
| CC[C@H]1OC(=O)[C@H](C)[C@@H](O[C@H]2C[C@@](C)(OC)[C@@H](O)[C@H](C)O2)[C@H](C)[C@@H](O[C@@H]2O[C@H](C)C[C@H](N(C)C)[C@H]2O)[C@](C)(O)C[C@@H](C)[C@@H](N2CCCCCC2)[C@H](C)[C@@H](O)[C@]1(C)O [Example 2] |  | 0.2 (≈ 0.245 µM) | 0.02 (≈ 0.0245 µM) |  |  | 0.1 (≈ 0.122 µM) | 3.1 (≈ 3.79 µM) | 0.1 (≈ 0.122 µM) | 0.05 (≈ 0.0612 µM) | 0.02 (≈ 0.0245 µM) | 0.31 (≈ 0.379 µM) | 0.1 (≈ 0.122 µM) | 12.5 (≈ 15.3 µM) |  |  | > 100 | 0.39 (≈ 0.477 µM) |  | 0.005 (≈ 0.00612 µM) | 0.39 (≈ 0.477 µM) | MIC [1]: 0.39 mg/L (≈ 0.477 µM); MIC ([4]; CMX553): 0.39 mg/L (≈ 0.477 µM); MIC (Escherichia coli DC-2; DC2): 12.5 mg/L (≈ 15.3 µM); MIC ([7]; NCTC10649): 0.39 mg/L (≈ 0.477 µM); MIC ([8]; 642A): 0.39 mg/L (≈ 0.477 µM); MIC [12]; 3519: 0.39 mg/L (≈ 0.477 µM); MIC [13, 25]: 0.05 mg/L (≈ 0.0612 µM) |

From patent US5075289A, “9-R-azacyclic erythromycin antibiotics” (priority 1988, dated 1991)
